Reference: ChEMBL document CHEMBL1152932, “Inhibitory effects of phloroglucinol derivatives isolated from Ecklonia stolonifera on Fc(epsilon)RI expression” (Bioorg Med Chem, 2009)

Tests used:
KU-812F [1] = assay: Inhibition of Fc-epsilonR1 protein expression in anti-human Fc-epsilonR1 antibody-stimulated human KU-812F cells after 24 hrs by Western blotting; type: functional, cell-based
KU-812F [2] = assay: Inhibition of Fc-epsilonR1 alpha mRNA expression in anti-human Fc-epsilonR1 antibody-stimulated human KU-812F cells after 24 hrs by RT-PCR; type: functional, cell-based
[3] = target: T1, High affinity immunoglobulin epsilon receptor subunit alpha (Homo sapiens) (UniProt P12319); assay: Inhibition of Fc-epsilonR1-mediated [Ca2+]i elevation in anti-human Fc-epsilonR1 antibody-stimulated human KU-812F cells; type: cell-based
T1 sequence (whole entry): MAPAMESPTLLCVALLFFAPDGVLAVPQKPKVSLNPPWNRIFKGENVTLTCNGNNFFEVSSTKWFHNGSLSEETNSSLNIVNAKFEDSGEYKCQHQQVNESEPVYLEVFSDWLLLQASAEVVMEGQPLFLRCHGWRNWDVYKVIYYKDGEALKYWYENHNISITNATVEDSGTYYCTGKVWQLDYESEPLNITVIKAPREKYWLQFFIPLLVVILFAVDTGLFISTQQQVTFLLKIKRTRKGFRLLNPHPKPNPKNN

[4] = target: T1, High affinity immunoglobulin epsilon receptor subunit alpha (Homo sapiens); assay: Inhibition of Fc-epsilonR1-mediated histamine release in anti-human Fc-epsilonR1 antibody-stimulated human KU-812F cells by spectrofluorimetry; type: cell-based
[5] = Inhibition of Fc-epsilonR1 expression in anti-human Fc-epsilonR1 antibody-stimulated human KU-812F cells at 50 uM after 24 hrs by flow cytometry; type: functional
[6] = Inhibition of Fc-epsilonR1 expression in anti-human Fc-epsilonR1 antibody-stimulated human KU-812F cells at 5 uM after 24 hrs by flow cytometry; type: functional
[7] = Inhibition of Fc-epsilonR1 expression in anti-human Fc-epsilonR1 antibody-stimulated human KU-812F cells at 10 uM after 24 hrs by flow cytometry; type: functional
[8] = Inhibition of Fc-epsilonR1 expression in anti-human Fc-epsilonR1 antibody-stimulated human KU-812F cells at 25 uM after 24 hrs by flow cytometry; type: functional

| Structure (SMILES) | Activity (KU-812F [1]) | Activity (KU-812F [2]) | Activity [3] | Activity [4] | inhibition at 50 µM [5] | inhibition at 5 µM [6] | inhibition at 10 µM [7] | inhibition at 25 µM [8] |
| --- | --- | --- | --- | --- | --- | --- | --- | --- |
| Oc1cc(O)cc(Oc2c(O)cc(O)c3c2Oc2c(O)cc4oc5c(Oc6cc(O)cc(O)c6)c(O)cc(O)c5c4c2O3)c1 | Dose-dependent effect | Dose-dependent effect | Dose-dependent effect | Dose-dependent effect | – | – | – | – |
| Oc1cc(O)c2oc3cc(O)c4oc5cc(O)cc(O)c5oc4c3oc2c1 [DIOXINODEHYDROECKOL] | Dose-dependent effect | Dose-dependent effect | Dose-dependent effect | Dose-dependent effect | 16.9% | 25.2% | 23.1% | 19.5% |
